{"source": "ChEMBL document CHEMBL6114939", "about": "“Identification of Dual Inhibitors Targeting Main Protease (Mpro) and Cathepsin L as Potential Anti-SARS-CoV-2 Agents” (ACS Med Chem Lett, 2024)", "key": {"[1]": {"system": "Severe acute respiratory syndrome coronavirus 2", "test": "Inhibition of N-terminal sumo/his-6 tagged SARS CoV-2 MPro (3264 to 3569 residues) extracted from Escherichia coli BL21 Gold (DE3) cells assessed as residual activity using Dabcyl-KTSAVLQSGFRKMEE-dans as substrate at 1 uM incubated for 10 mins by FRET assay relative to control"}, "[2]": {"target": "T1, Procathepsin L (Homo sapiens, UniProt P07711)", "test": "Inhibition of human Cathepsin L assessed as residual activity using Cbz-FR-AMC as substrate at 1 uM preincubated for 20 mins at room temperature followed by substrate addition and measured after 10 mins by FRET assay", "details": "time 30.0 min"}, "[3]": {"test": "Binding affinity to N-terminal sumo/his-6 tagged SARS CoV-2 MPro (3264 to 3569 residues) extracted from Escherichia coli BL21 Gold (DE3) cells assessed as inhibition constant using Dabcyl-KTSAVLQSGFRKMEE-dans as substrate incubated for 10 mins by FRET assay", "design": "species or system Severe acute respiratory syndrome coronavirus 2"}, "[4]": {"target": "T1, Procathepsin L", "test": "Binding affinity to human Cathepsin L assessed as inhibition constant using Cbz-FR-AMC as substrate preincubated for 20 mins at room temperature followed by substrate addition measured after 10 mins by FRET assay"}, "[5]": {"system": "Huh-7", "test": "Cytotoxicity against human Huh-7 cells overexpressing human ACE2 incubated for 24 hrs by MTT assay", "type": "functional"}, "[6]": {"target": "Cathepsin S (Homo sapiens, UniProt P25774)", "sequence (P25774 whole entry)": "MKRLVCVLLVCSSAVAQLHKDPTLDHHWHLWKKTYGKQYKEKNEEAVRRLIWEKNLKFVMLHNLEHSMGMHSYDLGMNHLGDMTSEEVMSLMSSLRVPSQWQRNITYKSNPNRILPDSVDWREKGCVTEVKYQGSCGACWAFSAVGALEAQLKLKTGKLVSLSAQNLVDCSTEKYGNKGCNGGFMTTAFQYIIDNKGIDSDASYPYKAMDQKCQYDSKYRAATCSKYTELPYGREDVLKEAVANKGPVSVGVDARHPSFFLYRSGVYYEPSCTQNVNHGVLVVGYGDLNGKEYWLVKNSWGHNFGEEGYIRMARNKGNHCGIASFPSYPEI", "test": "Binding affinity to human Cathepsin S assessed as inhibition constant using Cbz-VVR-AMC as substrate preincubated for 20 mins at room temperature followed by substrate addition and measured after 10 mins by FRET assay"}, "[7]": {"target": "Cathepsin B (Homo sapiens, UniProt P07858)", "test": "Binding affinity to human Cathepsin B assessed as inhibition constant using Cbz-FR-AMC as substrate preincubated for 20 mins at room temperature followed by substrate addition and measured after 10 mins by FRET assay"}}}
{"smiles": "CC(=O)/C=C/[C@H](C[C@@H]1CCNC1=O)NC(=O)[C@H](CC(C)(C)C)NC(=O)c1ccccc1F", "values": [{"measurement": "Activity", "setting": "[1]", "result": 89.4, "unit": "%"}, {"measurement": "Activity", "setting": "[2]", "result": 33.5, "unit": "%"}]}
{"smiles": "CCCC[C@H](NC(=O)c1ccccc1F)C(=O)N[C@H](/C=C/C(C)=O)C[C@@H]1CCNC1=O", "values": [{"measurement": "Activity", "setting": "[1]", "result": 98.7, "unit": "%"}, {"measurement": "Activity", "setting": "[2]", "result": 8.66, "unit": "%"}]}
{"smiles": "CCC[C@H](NC(=O)c1ccccc1F)C(=O)N[C@H](/C=C/C(C)=O)C[C@@H]1CCNC1=O", "values": [{"measurement": "Activity", "setting": "[1]", "result": 101, "unit": "%"}, {"measurement": "Activity", "setting": "[2]", "result": 12, "unit": "%"}]}
{"smiles": "CCOC(=O)/C=C/[C@H](C[C@@H]1CCNC1=O)NC(=O)[C@H](Cc1ccccc1)NC(=O)[C@@H](Cc1ccc(F)cc1)NC(=O)OC(C)(C)C", "values": [{"measurement": "Ki", "setting": "[3]", "result": 1.8, "unit": "µM"}, {"measurement": "Ki", "setting": "[4]", "result": 145, "unit": "nM"}]}
{"smiles": "CCCC[C@H](NC(=O)c1ccc(F)cc1)C(=O)N[C@H](/C=C/C(C)=O)C[C@@H]1CCNC1=O", "values": [{"measurement": "Activity", "setting": "[1]", "result": 58.8, "unit": "%"}, {"measurement": "Ki", "setting": "[3]", "result": 10.7, "unit": "µM"}, {"measurement": "Activity", "setting": "[2]", "result": 15.2, "unit": "%"}, {"measurement": "Ki", "setting": "[4]", "result": 141, "unit": "nM"}, {"measurement": "CC50", "setting": "[5]", "result": "> 100", "unit": "µM"}]}
{"smiles": "CC(=O)/C=C/[C@H](C[C@@H]1CCNC1=O)NC(=O)[C@H](CC1CCCCC1)NC(=O)c1cccc(F)c1", "values": [{"measurement": "Activity", "setting": "[1]", "result": 64.2, "unit": "%"}, {"measurement": "Ki", "setting": "[3]", "result": 3.66, "unit": "µM"}, {"measurement": "Activity", "setting": "[2]", "result": 3.6, "unit": "%"}, {"measurement": "Ki", "setting": "[4]", "result": 4, "unit": "nM"}, {"measurement": "CC50", "setting": "[5]", "result": 22.6, "unit": "µM"}]}
{"smiles": "CC(=O)/C=C/[C@H](C[C@@H]1CCNC1=O)NC(=O)[C@H](CC1CC1)NC(=O)c1cccc(F)c1", "values": [{"measurement": "Activity", "setting": "[1]", "result": 92.7, "unit": "%"}, {"measurement": "Activity", "setting": "[2]", "result": 9.76, "unit": "%"}]}
{"smiles": "CCC[C@H](NC(=O)c1cccc(F)c1)C(=O)N[C@H](/C=C/C(C)=O)C[C@@H]1CCNC1=O", "values": [{"measurement": "Activity", "setting": "[1]", "result": 101, "unit": "%"}, {"measurement": "Activity", "setting": "[2]", "result": 8.61, "unit": "%"}]}
{"smiles": "CC(=O)/C=C/[C@H](C[C@@H]1CCNC1=O)NC(=O)[C@H](CC(C)C)NC(=O)c1ccccc1F", "values": [{"measurement": "Activity", "setting": "[1]", "result": 88.7, "unit": "%"}, {"measurement": "Activity", "setting": "[2]", "result": 5.3, "unit": "%"}]}
{"smiles": "CC(=O)/C=C/[C@H](C[C@@H]1CCNC1=O)NC(=O)[C@H](CC1CCCCC1)NC(=O)c1ccc(F)cc1", "values": [{"measurement": "Activity", "setting": "[1]", "result": 68.2, "unit": "%"}, {"measurement": "Ki", "setting": "[3]", "result": 3.14, "unit": "µM"}, {"measurement": "Activity", "setting": "[2]", "result": 5, "unit": "%"}, {"measurement": "Ki", "setting": "[4]", "result": 17, "unit": "nM"}, {"measurement": "CC50", "setting": "[5]", "result": 46.9, "unit": "µM"}]}
{"smiles": "CC(=O)/C=C/[C@H](C[C@@H]1CCNC1=O)NC(=O)[C@H](CC(C)C)NC(=O)c1cccc(F)c1", "values": [{"measurement": "Activity", "setting": "[1]", "result": 99.5, "unit": "%"}, {"measurement": "Activity", "setting": "[2]", "result": 10.9, "unit": "%"}]}
{"smiles": "CC(=O)/C=C/[C@H](C[C@@H]1CCNC1=O)NC(=O)[C@H](CC1CCCCC1)NC(=O)c1ccccc1F", "values": [{"measurement": "Activity", "setting": "[1]", "result": 56.3, "unit": "%"}, {"measurement": "Ki", "setting": "[3]", "result": 1.61, "unit": "µM"}, {"measurement": "Activity", "setting": "[2]", "result": 3.4, "unit": "%"}, {"measurement": "Ki", "setting": "[4]", "result": 12, "unit": "nM"}, {"measurement": "CC50", "setting": "[5]", "result": 12.6, "unit": "µM"}]}
{"smiles": "CC(=O)/C=C/[C@H](C[C@@H]1CCNC1=O)NC(=O)[C@H](CC(C)(C)C)NC(=O)c1cccc(F)c1", "values": [{"measurement": "Activity", "setting": "[1]", "result": 77, "unit": "%"}, {"measurement": "Activity", "setting": "[2]", "result": 34.7, "unit": "%"}]}
{"smiles": "CC(=O)/C=C/[C@H](C[C@@H]1CCNC1=O)NC(=O)[C@H](CC(C)C)NC(=O)c1ccc(F)cc1", "values": [{"measurement": "Ki", "setting": "[6]", "result": 6.23, "unit": "nM"}, {"measurement": "Activity", "setting": "[1]", "result": 64.9, "unit": "%"}, {"measurement": "Ki", "setting": "[3]", "result": 5.58, "unit": "µM"}, {"measurement": "Activity", "setting": "[2]", "result": 5.8, "unit": "%"}, {"measurement": "Ki", "setting": "[4]", "result": 20, "unit": "nM"}, {"measurement": "CC50", "setting": "[5]", "result": "> 100", "unit": "µM"}, {"measurement": "Ki", "setting": "[7]", "result": 10.9, "unit": "µM"}]}
{"smiles": "CCCC[C@H](NC(=O)c1cccc(F)c1)C(=O)N[C@H](/C=C/C(C)=O)C[C@@H]1CCNC1=O", "values": [{"measurement": "Activity", "setting": "[1]", "result": 86, "unit": "%"}, {"measurement": "Activity", "setting": "[2]", "result": 6.81, "unit": "%"}]}
{"smiles": "CC(=O)/C=C/[C@H](C[C@@H]1CCNC1=O)NC(=O)[C@H](CC1CC1)NC(=O)c1ccc(F)cc1", "values": [{"measurement": "Activity", "setting": "[1]", "result": 83.7, "unit": "%"}, {"measurement": "Activity", "setting": "[2]", "result": 26.8, "unit": "%"}]}
{"smiles": "CCC[C@H](NC(=O)c1ccc(F)cc1)C(=O)N[C@H](/C=C/C(C)=O)C[C@@H]1CCNC1=O", "values": [{"measurement": "Activity", "setting": "[1]", "result": 96.5, "unit": "%"}, {"measurement": "Activity", "setting": "[2]", "result": 19.1, "unit": "%"}]}
{"smiles": "CC(=O)/C=C/[C@H](C[C@@H]1CCNC1=O)NC(=O)[C@H](CC(C)(C)C)NC(=O)c1ccc(F)cc1", "values": [{"measurement": "Ki", "setting": "[6]", "result": 0.7, "unit": "nM"}, {"measurement": "Activity", "setting": "[1]", "result": 68.8, "unit": "%"}, {"measurement": "Ki", "setting": "[3]", "result": 5.54, "unit": "µM"}, {"measurement": "Activity", "setting": "[2]", "result": 45.1, "unit": "%"}, {"measurement": "Ki", "setting": "[4]", "result": 701, "unit": "nM"}, {"measurement": "CC50", "setting": "[5]", "result": "> 100", "unit": "µM"}, {"measurement": "Ki", "setting": "[7]", "result": 7.7, "unit": "µM"}]}
{"smiles": "CC(=O)/C=C/[C@H](C[C@@H]1CCNC1=O)NC(=O)[C@H](CC1CC1)NC(=O)c1ccccc1F", "values": [{"measurement": "Ki", "setting": "[6]", "result": 95.4, "unit": "nM"}, {"measurement": "Activity", "setting": "[1]", "result": 57.9, "unit": "%"}, {"measurement": "Ki", "setting": "[3]", "result": 2.95, "unit": "µM"}, {"measurement": "Activity", "setting": "[2]", "result": 23.2, "unit": "%"}, {"measurement": "Ki", "setting": "[4]", "result": 294, "unit": "nM"}, {"measurement": "CC50", "setting": "[5]", "result": "> 100", "unit": "µM"}]}
